Reference: ChEMBL document CHEMBL3045668, “Synthesis, antioxidant, and antibacterial studies of phenolic esters and amides of 2-(1-benzofuran-2-yl) quinoline-4-carboxylic acid” (Med Chem Res, 2013)
≈ marks a conversion by molar mass, not a printed value.

Legend:
Ochrobactrum [1] = assay: Antibacterial activity against Ochrobactrum at 1 mg/ml after 24 hr by agar well diffusion assay; type: functional; settings: read-out: IZ
Pantoea dispersa [2] = assay: Antibacterial activity against Pantoea dispersa at 1 mg/ml after 24 hr by agar well diffusion assay; type: functional; settings: read-out: IZ
Enterococcus [3] = assay: Antibacterial activity against Enterococcus after 18 to 20 hr by serial broth dilution method; type: functional
Staphylococcus aureus [4] = assay: Antibacterial activity against Staphylococcus aureus after 18 to 20 hr by serial broth dilution method; type: functional
Ochrobactrum [5] = assay: Antibacterial activity against Ochrobactrum after 18 to 20 hr by serial broth dilution method; type: functional
Pantoea dispersa [6] = assay: Antibacterial activity against Pantoea dispersa after 18 to 20 hr by serial broth dilution method; type: functional
Staphylococcus aureus [7] = assay: Antibacterial activity against Staphylococcus aureus at 1 mg/ml after 24 hr by agar well diffusion assay; type: functional; settings: read-out: IZ
Enterococcus [8] = assay: Antibacterial activity against Enterococcus at 1 mg/ml after 24 hr by agar well diffusion assay; type: functional; settings: read-out: IZ
[9] = system: Radical scavenging activity; assay: Antioxidant activity assessed as DPPH radical scavenging activity […] after 30 min by spectrophotometric analysis; type: functional
[10] = Metal chelating activity assessed as inhibition of Fe2+-ferrozine complex at 0.5 to 2 mg/ml after 10 min by spectrophotometric analysis; type: physicochemical

MIC (Enterococcus [3]) [µg/mL]	MIC (Staphylococcus aureus [4]) [µg/mL]	MIC (Ochrobactrum [5]) [µg/mL]	MIC (Pantoea dispersa [6]) [µg/mL]	IC50 [9] [µg/mL]	inhibition (INH) [10]	SMILES	zone of inhibition at 1000 µg/mL (Ochrobactrum [1]) [mm]	zone of inhibition at 1000 µg/mL (Pantoea dispersa [2]) [mm]	zone of inhibition at 1000 µg/mL (Staphylococcus aureus [7]) [mm]	zone of inhibition at 1000 µg/mL (Enterococcus [8]) [mm]
500 (≈ 1200 µM)	250 (≈ 602 µM)	500 (≈ 1200 µM)	120 (≈ 289 µM)	45.6 (≈ 110 µM)	Active	O=C(Oc1cccc2ccccc12)c1cc(-c2cc3ccccc3o2)nc2ccccc12	11	15	14	13
> 500	500 (≈ 1200 µM)	> 500	250 (≈ 602 µM)	15.6 (≈ 37.5 µM)	Active	O=C(Oc1ccc2ccccc2c1)c1cc(-c2cc3ccccc3o2)nc2ccccc12	12	12	12	10
> 500	> 500	> 500	> 500	–	–	O=C(c1cc(-c2cc3ccccc3o2)nc2ccccc12)N1CCCCC1	9	10	11	7
> 500	> 500	250 (≈ 707 µM)	250 (≈ 707 µM)	–	–	Cc1nccn1C(=O)c1cc(-c2cc3ccccc3o2)nc2ccccc12	12	15	8	9
120 (≈ 335 µM)	> 500	500 (≈ 1400 µM)	250 (≈ 698 µM)	–	–	O=C(c1cc(-c2cc3ccccc3o2)nc2ccccc12)N1CCOCC1	11	13	10	13
120 (≈ 328 µM)	60 (≈ 164 µM)	60 (≈ 164 µM)	120 (≈ 328 µM)	–	Active	O=C(Oc1ccccc1)c1cc(-c2cc3ccccc3o2)nc2ccccc12	16	18	16	12
60 (≈ 158 µM)	60 (≈ 158 µM)	25 (≈ 65.9 µM)	120 (≈ 316 µM)	–	–	Cc1ccccc1OC(=O)c1cc(-c2cc3ccccc3o2)nc2ccccc12	18	19	17	16
60 (≈ 158 µM)	60 (≈ 158 µM)	60 (≈ 158 µM)	250 (≈ 659 µM)	49.5 (≈ 130 µM)	Active	Cc1ccc(OC(=O)c2cc(-c3cc4ccccc4o3)nc3ccccc23)cc1	20	13	19	19
500 (≈ 1250 µM)	500 (≈ 1250 µM)	250 (≈ 625 µM)	120 (≈ 300 µM)	> 100	–	O=C(Oc1ccccc1Cl)c1cc(-c2cc3ccccc3o2)nc2ccccc12	14	16	12	10
120 (≈ 300 µM)	120 (≈ 300 µM)	60 (≈ 150 µM)	60 (≈ 150 µM)	–	Active	O=C(Oc1ccc(Cl)cc1)c1cc(-c2cc3ccccc3o2)nc2ccccc12	17	18	17	14
250 (≈ 576 µM)	250 (≈ 576 µM)	120 (≈ 276 µM)	120 (≈ 276 µM)	–	–	O=C(Oc1ccc(Cl)cc1Cl)c1cc(-c2cc3ccccc3o2)nc2ccccc12	14	16	14	11
500 (≈ 1070 µM)	500 (≈ 1070 µM)	500 (≈ 1070 µM)	250 (≈ 533 µM)	24.34 (≈ 51.9 µM)	–	O=C(Oc1c(Cl)cc(Cl)cc1Cl)c1cc(-c2cc3ccccc3o2)nc2ccccc12	12	14	12	10
60 (≈ 135 µM)	60 (≈ 135 µM)	250 (≈ 563 µM)	500 (≈ 1130 µM)	–	Active	O=C(Oc1ccc(Br)cc1)c1cc(-c2cc3ccccc3o2)nc2ccccc12	15	14	18	16
60 (≈ 172 µM)	60 (≈ 172 µM)	60 (≈ 172 µM)	60 (≈ 172 µM)	–	–	CC1(C)S[C@@H]2[C@H](NC(=O)[C@H](N)c3ccccc3)C(=O)N2[C@H]1C(=O)O [AMPICILLIN]	21	20	20	24
